{"source": "ChEMBL document CHEMBL1147578", "about": "“Design, synthesis, and SAR of anthranilamide-based factor Xa inhibitors with improved functional activity” (Bioorg Med Chem Lett, 2004)", "key": {"[1]": {"test": "Oral bioavailability in rat (dose 6 mg/kg)", "format": "ADME, organism-based", "conditions": "in vivo"}, "[2]": {"target": "Tissue-type plasminogen activator (Homo sapiens, UniProt P00750)", "sequence (P00750 whole entry)": "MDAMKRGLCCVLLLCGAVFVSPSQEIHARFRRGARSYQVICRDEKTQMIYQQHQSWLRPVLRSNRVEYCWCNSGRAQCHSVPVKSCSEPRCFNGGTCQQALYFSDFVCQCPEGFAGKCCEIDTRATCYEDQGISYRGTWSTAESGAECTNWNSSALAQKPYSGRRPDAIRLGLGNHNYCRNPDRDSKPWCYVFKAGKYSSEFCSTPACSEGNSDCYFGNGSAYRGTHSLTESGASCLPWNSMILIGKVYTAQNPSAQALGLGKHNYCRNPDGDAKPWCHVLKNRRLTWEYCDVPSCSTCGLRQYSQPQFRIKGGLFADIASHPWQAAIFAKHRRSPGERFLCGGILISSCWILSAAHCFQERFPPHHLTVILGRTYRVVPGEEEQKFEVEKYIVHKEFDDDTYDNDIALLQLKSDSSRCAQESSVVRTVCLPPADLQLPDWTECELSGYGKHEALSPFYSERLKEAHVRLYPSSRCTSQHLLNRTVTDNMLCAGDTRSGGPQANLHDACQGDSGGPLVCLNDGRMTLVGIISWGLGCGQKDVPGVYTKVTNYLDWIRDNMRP", "test": "Inhibitory activity against tissue type plasminogen activator."}, "[3]": {"target": "Serine protease 1 (Homo sapiens, UniProt P07477)", "sequence (P07477 whole entry)": "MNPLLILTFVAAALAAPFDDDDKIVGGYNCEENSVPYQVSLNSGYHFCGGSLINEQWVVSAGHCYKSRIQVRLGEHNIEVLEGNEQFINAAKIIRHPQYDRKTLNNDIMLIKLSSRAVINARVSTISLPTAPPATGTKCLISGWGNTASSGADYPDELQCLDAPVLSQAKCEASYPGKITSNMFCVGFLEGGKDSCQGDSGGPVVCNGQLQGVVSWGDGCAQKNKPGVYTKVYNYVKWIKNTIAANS", "test": "Inhibitory activity against trypsin."}, "[4]": {"species_on_record": "Homo sapiens", "test": "Concentration required to double the lag time of maximum thrombin generation in human plasma-based thrombin generation assay", "format": "functional"}, "[5]": {"target": "T1, Coagulation factor X (Homo sapiens, UniProt P00742)", "T1 sequence (P00742 41-179 limits assumed)": "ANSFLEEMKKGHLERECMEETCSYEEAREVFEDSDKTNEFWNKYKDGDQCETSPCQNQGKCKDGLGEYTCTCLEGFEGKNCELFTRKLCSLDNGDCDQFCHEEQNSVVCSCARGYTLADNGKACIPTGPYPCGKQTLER", "T1 sequence (P00742 235-488 limits assumed)": "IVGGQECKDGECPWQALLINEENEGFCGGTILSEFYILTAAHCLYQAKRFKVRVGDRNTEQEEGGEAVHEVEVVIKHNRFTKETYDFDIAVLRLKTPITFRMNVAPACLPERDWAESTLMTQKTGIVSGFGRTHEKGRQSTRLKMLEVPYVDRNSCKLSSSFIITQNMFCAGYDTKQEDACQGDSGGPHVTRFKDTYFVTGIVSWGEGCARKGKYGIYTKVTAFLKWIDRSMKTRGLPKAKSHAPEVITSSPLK", "test": "In vitro inhibitory activity against coagulation factor X."}, "[6]": {"target": "Prothrombin (Homo sapiens, UniProt P00734)", "test": "Inhibitory activity against thrombin."}, "[7]": {"target": "Vitamin K-dependent protein C (Homo sapiens, UniProt P04070)", "sequence (P04070 43-197 limits assumed)": "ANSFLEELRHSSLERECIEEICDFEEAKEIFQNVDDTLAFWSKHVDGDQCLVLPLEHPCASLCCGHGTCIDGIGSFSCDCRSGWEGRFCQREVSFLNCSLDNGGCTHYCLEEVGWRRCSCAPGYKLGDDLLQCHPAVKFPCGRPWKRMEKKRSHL", "sequence (P04070 212-461 limits assumed)": "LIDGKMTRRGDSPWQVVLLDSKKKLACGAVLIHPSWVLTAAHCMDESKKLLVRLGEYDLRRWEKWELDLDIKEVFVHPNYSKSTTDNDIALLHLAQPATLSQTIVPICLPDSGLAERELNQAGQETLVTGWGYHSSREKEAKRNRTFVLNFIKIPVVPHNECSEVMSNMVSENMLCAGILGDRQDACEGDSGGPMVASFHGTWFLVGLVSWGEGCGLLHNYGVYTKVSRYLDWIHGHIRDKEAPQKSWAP", "test": "Inhibitory activity against activated protein C"}, "[8]": {"target": "Plasma kallikrein (Homo sapiens, UniProt P03952)", "sequence (P03952 20-390 limits assumed)": "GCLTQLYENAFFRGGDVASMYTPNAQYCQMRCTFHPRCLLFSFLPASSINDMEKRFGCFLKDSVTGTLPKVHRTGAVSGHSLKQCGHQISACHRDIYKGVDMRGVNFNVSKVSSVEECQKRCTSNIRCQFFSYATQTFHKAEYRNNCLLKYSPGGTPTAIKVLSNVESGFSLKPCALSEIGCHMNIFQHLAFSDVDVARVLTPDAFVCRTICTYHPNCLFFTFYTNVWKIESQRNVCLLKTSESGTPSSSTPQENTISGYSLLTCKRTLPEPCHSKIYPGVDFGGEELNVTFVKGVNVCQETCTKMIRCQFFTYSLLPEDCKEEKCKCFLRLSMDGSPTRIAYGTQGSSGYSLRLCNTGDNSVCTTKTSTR", "sequence (P03952 391-638 limits assumed)": "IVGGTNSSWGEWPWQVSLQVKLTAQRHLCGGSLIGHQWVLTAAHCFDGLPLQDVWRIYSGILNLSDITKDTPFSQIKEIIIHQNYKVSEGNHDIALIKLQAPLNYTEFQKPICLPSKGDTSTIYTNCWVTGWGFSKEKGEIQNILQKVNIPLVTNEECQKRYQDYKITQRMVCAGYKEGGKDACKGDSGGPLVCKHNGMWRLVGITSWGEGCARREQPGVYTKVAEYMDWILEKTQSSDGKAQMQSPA", "test": "Inhibitory activity against kallikrein"}, "[9]": {"target": "Plasminogen (Homo sapiens, UniProt P00747)", "sequence (P00747 97-580 limits assumed)": "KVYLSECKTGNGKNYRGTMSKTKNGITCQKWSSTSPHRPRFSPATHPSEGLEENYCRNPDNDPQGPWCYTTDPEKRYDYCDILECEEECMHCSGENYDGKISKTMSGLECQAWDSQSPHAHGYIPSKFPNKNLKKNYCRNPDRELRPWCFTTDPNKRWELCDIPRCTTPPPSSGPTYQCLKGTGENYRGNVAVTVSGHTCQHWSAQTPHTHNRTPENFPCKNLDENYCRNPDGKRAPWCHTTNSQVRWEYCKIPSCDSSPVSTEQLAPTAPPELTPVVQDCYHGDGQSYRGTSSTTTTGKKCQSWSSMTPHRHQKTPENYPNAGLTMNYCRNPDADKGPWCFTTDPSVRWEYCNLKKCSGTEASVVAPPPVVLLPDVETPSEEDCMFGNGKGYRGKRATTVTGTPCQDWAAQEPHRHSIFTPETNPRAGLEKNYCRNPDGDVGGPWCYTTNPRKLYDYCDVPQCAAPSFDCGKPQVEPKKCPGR", "sequence (P00747 581-810 limits assumed)": "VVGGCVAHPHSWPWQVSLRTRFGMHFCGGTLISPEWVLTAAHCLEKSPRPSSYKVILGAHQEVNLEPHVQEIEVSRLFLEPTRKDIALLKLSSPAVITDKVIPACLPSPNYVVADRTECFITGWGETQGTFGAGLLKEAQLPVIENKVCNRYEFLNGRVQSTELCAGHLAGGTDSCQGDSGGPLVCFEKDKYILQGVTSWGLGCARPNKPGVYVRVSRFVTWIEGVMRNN", "test": "Inhibitory activity against plasmin."}, "[10]": {"target": "T1, Coagulation factor X", "test": "In vitro inhibitory activity against Coagulation factor X"}, "[11]": {"species_on_record": "Rattus norvegicus", "test": "Effective dose required for antithrombotic activity in rat vena cava stasis model", "format": "functional"}, "[12]": {"test": "Oral bioavailability in dog", "format": "ADME, organism-based, Canis lupus familiaris", "conditions": "in vivo"}, "[13]": {"target": "T1, Coagulation factor X", "test": "Inhibitory activity against Coagulation factor X"}, "[14]": {"test": "Half life after intravenous administration was determined in rats at 0.4 mg/kg", "conditions": "rat, in vivo"}, "[15]": {"species_on_record": "Oryctolagus cuniculus", "test": "Percent inhibition of thrombus formation in rabbit deep vein thrombosis at 0.83 uM", "format": "functional"}, "[16]": {"species_on_record": "Oryctolagus cuniculus", "test": "Percent inhibition of thrombus formation in rabbit deep vein thrombosis at 0.25 uM", "format": "functional"}, "[17]": {"test": "Plasma clearance after intravenous administration of 0.4 mg/kg of dose in rats was determined", "format": "ADME, organism-based", "design": "dose 0.4 mg/kg, route intravenous", "conditions": "rat"}, "[18]": {"system": "Rattus norvegicus", "test": "Volume of distribution after intravenous administration of 0.4 mg/kg of dose in rats was determined", "conditions": "in vivo"}, "[19]": {"test": "Oral bioavailability in rats at 6 mg/kg", "format": "ADME, organism-based", "conditions": "rat, in vivo"}}, "note": "pIC50, pKi: −log10 of the molar value."}
{"smiles": "N=C1NCCN1Cc1ccc(C(=O)Nc2ccc(Cl)cc2C(=O)Nc2ccc(Cl)cn2)cc1", "values": [{"measurement": "bioavailability", "setting": "[1]", "result": "< 1", "unit": "%"}, {"measurement": "pIC50", "setting": "[2]", "result": "< 4.96"}, {"measurement": "pIC50", "setting": "[3]", "result": "< 4.96"}, {"measurement": "Activity", "setting": "[4]", "result": 0.58, "unit": "µM"}, {"measurement": "pIC50", "setting": "[5]", "result": 8.82}, {"measurement": "pIC50", "setting": "[6]", "result": "< 4.96"}, {"measurement": "pIC50", "setting": "[7]", "result": "< 4.96"}, {"measurement": "pIC50", "setting": "[8]", "result": 6.68}, {"measurement": "pIC50", "setting": "[9]", "result": "< 4.96"}, {"measurement": "pKi", "setting": "[10]", "result": 9.30}]}
{"smiles": "COc1cc(Cl)cc(C(=O)Nc2ccc(Cl)cn2)c1NC(=O)c1scc(CN(C)C2=NCCO2)c1Cl", "values": [{"measurement": "ED50", "setting": "[11]", "result": 0.8, "unit": "µM"}, {"measurement": "bioavailability", "setting": "[12]", "result": 40, "unit": "%"}]}
{"smiles": "C[N+](C)(C)Cc1ccc(C(=O)Nc2ccc(Cl)cc2C(=O)Nc2ccc(Cl)cn2)cc1", "values": [{"measurement": "bioavailability", "setting": "[1]", "result": "< 1", "unit": "%"}, {"measurement": "pIC50", "setting": "[2]", "result": "< 4.96"}, {"measurement": "pIC50", "setting": "[3]", "result": "< 4.96"}, {"measurement": "Activity", "setting": "[4]", "result": 0.3, "unit": "µM"}, {"measurement": "pIC50", "setting": "[5]", "result": 9.10}, {"measurement": "pIC50", "setting": "[6]", "result": "< 4.96"}, {"measurement": "pIC50", "setting": "[7]", "result": "< 4.96"}, {"measurement": "pIC50", "setting": "[8]", "result": 6.89}, {"measurement": "pIC50", "setting": "[9]", "result": "< 4.96"}, {"measurement": "pKi", "setting": "[10]", "result": 9.00}]}
{"smiles": "CN(Cc1ccc(C(=O)Nc2ccc(Cl)cc2C(=O)Nc2ccc(Cl)cn2)cc1)C(=N)N", "values": [{"measurement": "bioavailability", "setting": "[1]", "result": "< 1", "unit": "%"}, {"measurement": "pIC50", "setting": "[2]", "result": "< 4.96"}, {"measurement": "pIC50", "setting": "[3]", "result": "< 4.96"}, {"measurement": "Activity", "setting": "[4]", "result": 0.38, "unit": "µM"}, {"measurement": "pIC50", "setting": "[5]", "result": 9.00}, {"measurement": "pIC50", "setting": "[6]", "result": "< 4.96"}, {"measurement": "pIC50", "setting": "[7]", "result": "< 4.96"}, {"measurement": "pIC50", "setting": "[8]", "result": 6.42}, {"measurement": "pIC50", "setting": "[9]", "result": "< 4.96"}, {"measurement": "pKi", "setting": "[10]", "result": 10.00}]}
{"smiles": "CN1CCN=C1N(C)Cc1ccc(C(=O)Nc2ccc(Cl)cc2C(=O)Nc2ccc(Cl)cn2)cc1", "values": [{"measurement": "bioavailability", "setting": "[1]", "result": "< 1", "unit": "%"}, {"measurement": "pIC50", "setting": "[2]", "result": "< 4.96"}, {"measurement": "pIC50", "setting": "[3]", "result": "< 4.96"}, {"measurement": "Activity", "setting": "[4]", "result": 0.3, "unit": "µM"}, {"measurement": "pIC50", "setting": "[5]", "result": 9.52}, {"measurement": "pIC50", "setting": "[6]", "result": "< 4.96"}, {"measurement": "pIC50", "setting": "[7]", "result": "< 4.96"}, {"measurement": "pIC50", "setting": "[8]", "result": 6.52}, {"measurement": "pIC50", "setting": "[9]", "result": "< 4.96"}, {"measurement": "pKi", "setting": "[10]", "result": 9.52}]}
{"smiles": "CC(=N)N(C)Cc1ccc(C(=O)Nc2ccc(Cl)cc2C(=O)Nc2ccc(Cl)cn2)cc1", "values": [{"measurement": "bioavailability", "setting": "[1]", "result": "< 1", "unit": "%"}, {"measurement": "pIC50", "setting": "[2]", "result": "< 4.96"}, {"measurement": "pIC50", "setting": "[3]", "result": "< 4.96"}, {"measurement": "Activity", "setting": "[4]", "result": 0.5, "unit": "µM"}, {"measurement": "pIC50", "setting": "[6]", "result": "< 4.96"}, {"measurement": "pIC50", "setting": "[7]", "result": "< 4.96"}, {"measurement": "pIC50", "setting": "[8]", "result": 6.30}, {"measurement": "pIC50", "setting": "[9]", "result": "< 4.96"}]}
{"smiles": "CN(C)NCc1ccc(C(=O)Nc2ccc(Cl)cc2C(=O)Nc2ccc(Cl)cn2)cc1", "values": [{"measurement": "bioavailability", "setting": "[1]", "result": 4, "unit": "%"}, {"measurement": "pKi", "setting": "[13]", "result": 9.52}, {"measurement": "pIC50", "setting": "[2]", "result": "< 4.96"}, {"measurement": "pIC50", "setting": "[3]", "result": "< 4.96"}, {"measurement": "Activity", "setting": "[4]", "result": 1.5, "unit": "µM"}, {"measurement": "pIC50", "setting": "[5]", "result": 9.05}, {"measurement": "pIC50", "setting": "[6]", "result": "< 4.96"}, {"measurement": "pIC50", "setting": "[7]", "result": "< 4.96"}, {"measurement": "pIC50", "setting": "[8]", "result": 6.19}, {"measurement": "pIC50", "setting": "[9]", "result": "< 4.96"}]}
{"smiles": "N=C1OCCN1Cc1ccc(C(=O)Nc2ccc(Cl)cc2C(=O)Nc2ccc(Cl)cn2)cc1", "values": [{"measurement": "half-life", "setting": "[14]", "result": 8.5, "unit": "h"}, {"measurement": "bioavailability", "setting": "[1]", "result": 44, "unit": "%"}, {"measurement": "pIC50", "setting": "[2]", "result": "< 4.96"}, {"measurement": "Inhibition", "setting": "[15]", "result": 40, "unit": "%"}, {"measurement": "Inhibition", "setting": "[16]", "result": 25, "unit": "%"}, {"measurement": "pIC50", "setting": "[3]", "result": "< 4.96"}, {"measurement": "Activity", "setting": "[4]", "result": 0.56, "unit": "µM"}, {"measurement": "pIC50", "setting": "[6]", "result": "< 4.96"}, {"measurement": "clearance", "setting": "[17]", "result": 18.3, "unit": "mL/min/kg"}, {"measurement": "pIC50", "setting": "[7]", "result": "< 4.96"}, {"measurement": "pIC50", "setting": "[8]", "result": 6.25}, {"measurement": "pIC50", "setting": "[9]", "result": "< 4.96"}, {"measurement": "Volume of distribution", "setting": "[18]", "result": 13.6, "unit": "L/kg"}]}
{"smiles": "CN(C)Cc1ccc(C(=O)Nc2ccc(Cl)cc2C(=O)Nc2ccc(Cl)cn2)cc1", "values": [{"measurement": "half-life", "setting": "[14]", "result": 7.5, "unit": "h"}, {"measurement": "pIC50", "setting": "[2]", "result": "< 4.96"}, {"measurement": "pIC50", "setting": "[3]", "result": "< 4.96"}, {"measurement": "Activity", "setting": "[4]", "result": 3.2, "unit": "µM"}, {"measurement": "pIC50", "setting": "[6]", "result": "< 4.96"}, {"measurement": "clearance", "setting": "[17]", "result": 20.6, "unit": "mL/min/kg"}, {"measurement": "pIC50", "setting": "[7]", "result": "< 4.96"}, {"measurement": "pIC50", "setting": "[8]", "result": 6.30}, {"measurement": "pIC50", "setting": "[9]", "result": "< 4.96"}, {"measurement": "bioavailability", "setting": "[19]", "result": 100, "unit": "%"}, {"measurement": "Volume of distribution", "setting": "[18]", "result": 32.9, "unit": "L/kg"}]}
{"smiles": "C/N=C(/N)N(C)Cc1ccc(C(=O)Nc2ccc(Cl)cc2C(=O)Nc2ccc(Cl)cn2)cc1", "values": [{"measurement": "pIC50", "setting": "[2]", "result": "< 4.96"}, {"measurement": "pIC50", "setting": "[3]", "result": "< 4.96"}, {"measurement": "Activity", "setting": "[4]", "result": 0.79, "unit": "µM"}, {"measurement": "pIC50", "setting": "[5]", "result": 9.15}, {"measurement": "pIC50", "setting": "[6]", "result": "< 4.96"}, {"measurement": "pIC50", "setting": "[7]", "result": "< 4.96"}, {"measurement": "pIC50", "setting": "[8]", "result": 6.10}, {"measurement": "pIC50", "setting": "[9]", "result": "< 4.96"}, {"measurement": "pKi", "setting": "[10]", "result": 9.70}]}
